Data set [1] in a line: Chromatographic hydrophobicity index (CHI) by RP-HPLC in buffered methanol. Particulars: buffered methanol pH 7.0, Econosil C18 150 mm, Eq. (4). It is filed as physicochemical.
The next data set has as its system HSC-T6 cells. The data set is described as follows: Serum-driven HSC-T6 proliferation, experiment 3 (24 h, proliferating cells). Format: cell-based, rat. To be noted: HSC-T6, 24 h, proliferating cells; read-out: Experiment 3 EC50 (A).
A further data set concerns HepG2 cells. The data set is described as follows: Cucurbitacins cytotoxicity on HepG2 cells (MTT viability assay). It is filed as cell-based, human. A general note: Formazan colour is commonly taken as a measure of viable cells.
Data set [2] is described as follows: Chromatographic hydrophobicity index (CHI) by RP-HPLC in buffered acetonitrile. Format: physicochemical. Also on record: key: CHI = φ0 (isocratic hydrophobicity index), = A·tR + B; ACN % scale. To be noted: for CHIACN1: buffered acetonitrile pH 7.0, Alltima C18 250 mm, Eq. (2) from isocratic φ0; for CHIACN2: buffered acetonitrile pH 7.0, Eq. (3) calibrated against published CHI.

In data set [3] the test system is lipid peroxidation of microsomal suspension. The data set is described as follows: Microsomal Lipid Peroxidation Assay. Format: biochemical. Particulars: at 0.1 mM, both chemical and enzymatic assays. On the procedure: Cucurbitacin anti-lipid peroxidation was studied by the Microsomal Lipid Peroxidation Assay (Engineer et al., Biochemical Pharmacology 38(8): 1279-1285, 1989). Lipid peroxidation of microsomal suspension was induced both enzymatically and chemically and validated on the standard compound quercetin. […] Activity of 3 cucurbitacin analogs, B, E, and E-Me-ether was monitored at 0.1 mM indicating no inhibition in either the chemical or enzymatic assay.

The values below come from US20070049538A1, “METHODS FOR USING CUCURBITACIN COMPOUNDS” (SOUTH DAKOTA STATE UNIVERSITY, priority 2005, published 2007).

By EC50 is commonly meant the concentration at which the effect is half-maximal. As a reminder, the IC50 is the concentration needed to halve the response being measured.

In data set [1], `CC(=O)OC(C)(C)/C=C/C(=O)[C@](C)(O)[C@H]1[C@H](O)C[C@@]2(C)[C@@H]3CC=C4[C@@H](C=C(O[C@@H]5O[C@H](CO)[C@@H](O)[C@H](O)[C@H]5O)C(=O)C4(C)C)[C@]3(C)C(=O)C[C@]12C` [E-Gluc, cucurbitacin E glucoside] showed a CHIMeOH of 62.27. For the same compound, the EC50 in the data set on HSC-T6 cells amounted to 3.28 µM. Besides, the IC50 is 227 ± 15.3 µM in the data set on HepG2 cells (Table 4, 24 h incubation, MTT); 227 ± 15.5 µM with HepG2 cells (Table 5); 227 µM in the data set with HepG2 cells (Table 7). In addition, the CHIACN1 in data set [2] was determined as 53.98. In data set [2], the CHIACN2 worked out at 49.13.
Cucurbitacin E-Me ether displayed a CHIMeOH in data set [1] of 71.55. Also, the “inhibition of lipid peroxidation” value in data set [3] is given as “no inhibition”. For the same compound, the EC50 with HSC-T6 cells came out at 0.08 µM. Also, the IC50 was 12 ± 3 µM in the data set with HepG2 cells (Table 4, 24 h incubation, MTT); 12 ± 3 µM in the data set on HepG2 cells (Table 5); 12 µM in the data set on HepG2 cells (Table 7). For the same compound, in data set [2], the CHIACN1 came out at 77.84. In data set [2], the CHIACN2 is on record as 86.09.
In the case of cucurbitacin E, the CHIMeOH in data set [1] is given as 69.6!^. For the same compound, the “inhibition of lipid peroxidation” value in data set [3] was “no inhibition”. For the same compound, in the data set with HSC-T6 cells, the EC50 amounted to 0.04 µM. For the same compound, the IC50 amounted to 15.3 µM in the data set on HepG2 cells (Table 4, 24 h incubation, MTT); 15.3 ± 6.6 µM in the data set with HepG2 cells (Table 5); 15.3 µM in the data set with HepG2 cells (Table 7). Besides, the CHIACN1 in data set [2] came to 75.92. The CHIACN2 in data set [2] was 83.13.
`CC(=O)OC(C)(C)/C=C/C(=O)[C@](C)(O)[C@H]1[C@H](O)C[C@@]2(C)[C@@H]3CC=C4[C@H](C[C@H](O)C(=O)C4(C)C)[C@]3(C)C(=O)C[C@]12C` [B, cucurbitacin B] gave a CHIMeOH in data set [1] of 67.33. Besides, the “inhibition of lipid peroxidation” value in data set [3] is listed as “no inhibition”. Further, the EC50 in the data set with HSC-T6 cells stood at 0.02 µM. In addition, the IC50 with HepG2 cells (Table 4, 24 h incubation, MTT) is 27.7 ± 9 µM; with HepG2 cells (Table 5), 27.7 ± 9 µM; in the data set on HepG2 cells (Table 7), 27.7 µM. Further, the CHIACN1 in data set [2] was determined as 70.93. Also, in data set [2], the CHIACN2 was 75.40.
